Laboratory results: patent publication US20180271930A1, “METHOD FOR RAISING POULTRY” (priority 2015, published 2018)

Legend:
myogenin = test: Examination 4: myogenin gene expression in superficial pectoral muscle at 3 days old; format: in vivo, broiler chicks; conditions: 0.01% by mass additive in feed for 3 days, FIG. 3A, n=4
Method: FIGS. 3A to 3C illustrate graphs showing the expression of genes related to skeletal muscle cell differentiation in superficial pectoral muscles upon administration of each feed composition in Examination 4 (n=4). […] A relative value of the expression level of each factor is expressed as an average±standard deviation of values obtained by dividing the expression levels of each factor by the expression level of RPS9. Newly hatched broiler chicks (Ross Breeders Ltd.) were tested. A control group (=additive-free group), a GSSG addition group (0.01% by mass), and a GSH addition group (0.01% by mass) each consisting of 5 males and 5 females were set and fed with a feed composition for 3 days. […] At this timing, 2 males and 2 females in each group were slaughtered to collect blood and skeletal muscles. The gene expression levels of the MyoD family (myogenin, myostatin, and Pax7) were observed. […] Statistics were analyzed using a mixed model in consideration of a gender difference and an interaction between males and females. A method for determining gene expressions of the above factors in skeletal muscles is described above. An ammonium salt was used as oxidized glutathione (GSSG). The GSSG contained 95.6% by mass of oxidized glutathione, and the content of reduced glutathione mixed therein was 0.1% by mass or less. […]

[1] = Examination 4: body weight of chicks raised until 35 days old after feeding GSSG or GSH for 3 days; format: in vivo, broiler chicks; conditions: 0.01% by mass additive in feed for 3 days; n = 6, average ± standard deviation
Method: Newly hatched broiler chicks (Ross Breeders Ltd.) were tested. A control group (=additive-free group), a GSSG addition group (0.01% by mass), and a GSH addition group (0.01% by mass) each consisting of 5 males and 5 females were set and fed with a feed composition for 3 days. […] At this timing, 2 males and 2 females in each group were slaughtered to collect blood and skeletal muscles. The gene expression levels of the MyoD family (myogenin, myostatin, and Pax7) were observed. […] Statistics were analyzed using a mixed model in consideration of a gender difference and an interaction between males and females. An ammonium salt was used as oxidized glutathione (GSSG). The GSSG contained 95.6% by mass of oxidized glutathione, and the content of reduced glutathione mixed therein was 0.1% by mass or less. […] A feed composition, for which the amount of oxidized glutathione (GSSG) added was set to 0.01% by mass, is described in Examination 1. A feed composition, for which the amount of reduced glutathione (GSH) added was set to 0.01% by mass, was prepared by adding 0.01% by mass of GSH, instead of 0.01% by mass of GSSG, to the GSSG-containing feed composition described in detail in Examination 1.

N[C@@H](CCC(=O)N[C@@H](CS)C(=O)NCC(=O)O)C(=O)O [GSH, N—(N-γ-L-glutamyl-L-cysteinyl)glycine, reference compound]
myogenin expression level vs control group (myogenin): smaller than the decrease
Weight, 14 days old [1]: 512.7 ± 79.8 g
Weight, 35 days old [1]: 2052 ± 267 g
